Values of other authors in patent EP0501250A1, “Fucose-marked batracylin derivatives” (BAYER AG, priority 1991, dated 1992).

Assays:
[1] = prior-art statement
Colon-38-Modell = Colon-38-Modell an der Maus

## Nc1ccc2c(c1)CN1C(=O)c3ccccc3C1=N2 [Batracylin]
[1]
  Löslichkeit in wasserhaltigen Lösungsmitteln: geringe Löslichkeit
Colon-38-Modell
  Antitumorwirkung: ausgezeichnete Antitumorwirkung
